pIC50: −log10 of the molar value. Values after ≈ are worked out from the molar mass of the structure shown. Where two headings read alike, the source gives them in different places.

For one data set, the target named is T1, AHR (Homo sapiens, UniProt P35869).
T1 construct: other cell line with a DRE-luciferase reporter stably transfected; endogenous in cells; host or cells: HepG2 AhR-Lucia reporter cells
T1 sequence (P35869 11-848): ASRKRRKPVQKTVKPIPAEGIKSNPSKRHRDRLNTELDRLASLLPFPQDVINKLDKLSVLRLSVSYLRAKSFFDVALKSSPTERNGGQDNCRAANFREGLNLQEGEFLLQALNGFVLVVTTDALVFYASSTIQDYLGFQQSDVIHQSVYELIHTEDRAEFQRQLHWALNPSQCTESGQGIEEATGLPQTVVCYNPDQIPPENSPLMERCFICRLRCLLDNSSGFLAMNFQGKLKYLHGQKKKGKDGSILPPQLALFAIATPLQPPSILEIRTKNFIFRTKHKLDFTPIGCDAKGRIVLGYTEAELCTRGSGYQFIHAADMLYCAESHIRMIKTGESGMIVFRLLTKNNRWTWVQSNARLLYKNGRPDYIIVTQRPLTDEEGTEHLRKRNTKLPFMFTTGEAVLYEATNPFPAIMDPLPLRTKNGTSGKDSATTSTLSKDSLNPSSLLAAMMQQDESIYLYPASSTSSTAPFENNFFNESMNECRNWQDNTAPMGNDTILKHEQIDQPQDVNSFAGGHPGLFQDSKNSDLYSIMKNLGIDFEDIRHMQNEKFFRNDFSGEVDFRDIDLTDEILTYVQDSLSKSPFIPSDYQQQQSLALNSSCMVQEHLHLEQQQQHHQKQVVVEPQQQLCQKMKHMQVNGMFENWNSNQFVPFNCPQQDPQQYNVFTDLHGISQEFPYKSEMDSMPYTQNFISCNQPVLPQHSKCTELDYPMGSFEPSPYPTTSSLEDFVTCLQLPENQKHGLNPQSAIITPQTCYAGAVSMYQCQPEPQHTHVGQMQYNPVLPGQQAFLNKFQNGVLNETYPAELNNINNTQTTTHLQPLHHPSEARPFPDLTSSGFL
Briefly: DRE-Luciferase Reporter Assay, HepG2 AhR-Lucia reporter cells. Particulars: with AHR activating ligand at EC50, read-out: HepG2-Luc IC50. It counts as cell-based. In a few lines: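 DRE-luciferase reporter cells (e.g. HepG2 AhR-Lucia, 20000 cells) treated with antagonist log dilutions from 100 uM, then an AHR agonist (e.g. TCDD, kynurenine, ITE, FICZ) at its EC50 added after 1 hr. Secreted luciferase measured after 24 or 48 h (QUANTI-Luc); IC50 = concentration halving luciferase activity.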
For orientation: A reporter such as luciferase makes a cellular process visible.

A short description of data set [1]: Solubility Determination Assay in PBS pH 1.6 and pH 7.4. It is filed as physicochemical. The conditions noted are these: PBS buffer, aqueous buffer, kinetic from dmso stock. The procedure, abridged: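 Compounds from 10 mM DMSO stock diluted into PBS pH 1.6 or pH 7.4 (15 μL into 485 μL), stirred 2 hours, then filtered. Filtrate quantified by LC-MS/MS against a standard of known concentration with internal standard; single determination.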

Setting [2] is: PBS pH 1.6, 25° C., read-out: Aq. Solubility at pH = 1.6.
Where [3] appears, read: PBS pH 7.4, 25° C., read-out: Aq. Solubility at pH = 7.4.

Turning to `Cn1cc(-c2nc(-c3ccc(C(F)(F)F)nc3)cc3c(=O)n([C@@H]4COC[C@H]4O)cnc23)cn1` [Compound 115, 3-((3R,4S)-4-hydroxytetrahydrofuran-3-y1)-8-(1-methyl-1H-pyrazol-4-y1)-6-(6-(trifluoromethyl)pyridin-3-yl)pyrido[3,4-d]pyrimidin-4(3H)-one], on AHR, the pIC50 (in general, −log10 of the IC50, conventionally taken in molar units) was over 7.00. Besides, the solubility at 2 h in data set [1] (setting [2]) and in data set [1] (setting [3]) was 0.1 to 1 µM (≈ 0.0458 to 0.458 µg/mL) each time.
On to `Cn1cc(-c2nc(-c3ccc(Cl)cc3)cc3c(=O)n([C@H]4COC[C@@H]4O)cnc23)cn1` [Compound 116], for which, at AHR, the pIC50 was over 7.00. Also, the solubility at 2 h in data set [1] (setting [2]) and in data set [1] (setting [3]) was 0.1 to 1 µM (≈ 0.0424 to 0.424 µg/mL) in each case.
For the compound `O=c1c2cc(-c3ccc(C(F)(F)F)nc3)nc(-c3cccnc3)c2ncn1[C@H]1COC[C@@H]1O` [Compound 117], the pIC50 on AHR is over 7.00. Also, the solubility at 2 h in data set [1] (setting [2]) and in data set [1] (setting [3]) was at least 1 µM each time.
Regarding `O=c1c2cc(-c3ccc(C4CC4)nc3)nc(-c3cccnc3)c2ncn1C[C@H](O)C(F)(F)F` [Compound 120, (S)-6-(6-cyclopropylpyridin-3-yl)-8-(pyridin-3-yl)-3-(3,3,3-trifluoro-2-hydroxypropyl)pyrido[3,4-d]pyrimidin-4(3H)-one], the pIC50 at AHR is over 7.00. In addition, the solubility at 2 h in data set [1] (setting [2]) and in data set [1] (setting [3]) was at least 1 µM throughout.
On to `O=c1c2cc(-c3ccc(C(F)(F)F)nc3)nc(-c3cccnc3)c2ncn1C[C@@H](O)C(F)(F)F` [Compound 122, (R)-8-(pyridin-3-yl)-3-(3,3,3-trifluoro-2-hydroxypropyl)-6-(6-(trifluoromethyl)pyridin-3-yl)pyrido[3,4-d]pyrimidin-4(3H)-one], for which the pIC50 at AHR is over 7.00. For the same compound, the solubility at 2 h in data set [1] (setting [2]) and in data set [1] (setting [3]) was at least 1 µM each time.
On to `O=c1c2cc(-c3ccc(OC(F)(F)F)cc3)nc(-c3cccnc3)c2ncn1C[C@H](O)C(F)(F)F` [Compound 124, (S)-8-(pyridin-3-yl)-3-(3,3,3-trifluoro-2-hydroxypropyl)-6-(4-(trifluoromethoxy)phenyl)pyrido[3,4-d]pyrimidin-4(3H)-one], for which the pIC50 at AHR is over 7.00. For the same compound, the solubility (in general, how much of the substance goes into solution per volume) at 2 h in data set [1] (setting [2]) was at least 1 µM; in data set [1] (setting [3]) it was under 0.1 µM.
On the same counts, the results for `O=c1c2cc(-c3ccc(Cl)cc3)nc(-c3cccnc3)c2ncn1[C@H]1COC[C@@H]1O` [Compound 125, 6-(4-chlorophenyl)-3-((3S,4R)-4-hydroxytetrahydrofuran-3-yl)-8-(pyridin-3-yl)pyrido[3,4-d]pyrimidin-4(3H)-one] are over 7.00, at least 1 µM and at least 1 µM.
Consider `O=c1c2cc(-c3ccc(C(F)(F)F)nc3)nc(-c3cccnc3)c2ncn1[C@H]1COC[C@H]1O` [Compound 126, 3-((3S,4S)-4-hydroxytetrahydrofuran-3-yl)-8-(pyridin-3-yl)-6-(6-(trifluoromethyl)pyridin-3-yl)pyrido[3,4-d]pyrimidin-4(3H)-one], for which the pIC50 on AHR is over 7.00. Moreover, the solubility at 2 h in data set [1] (setting [2]) and in data set [1] (setting [3]) was at least 1 µM in each case.
`Cn1cc(-c2nc(-c3ccc(C4CC4)nc3)cc3c(=O)n(C[C@H](O)C(F)(F)F)cnc23)cn1` [Compound 136, (S)-6-(6-cyclopropylpyridin-3-yl)-8-(1-methyl-1H-pyrazol-4-yl)-3-(3,3,3-trifluoro-2-hydroxypropyl)pyrido[3,4-d]pyrimidin-4(3H)-one]: the pIC50 at AHR is over 7.00. Also, the solubility at 2 h in data set [1] (setting [2]) was at least 1 µM; in data set [1] (setting [3]), 0.1 to 1 µM (≈ 0.0456 to 0.456 µg/mL).
For the compound `O=c1c2cc(-c3ccc(C(F)(F)F)cn3)nc(-c3cccnc3)c2ncn1[C@H]1COC[C@@H]1O` [Compound 139, 3-((3S,4R)-4-hydroxytetrahydrofuran-3-yl)-8-(pyridin-3-yl)-6-(5-(trifluoromethyl)pyridin-2-yl)pyrido[3,4-d]pyrimidin-4(3H)-one], the pIC50 on AHR is over 7.00. The solubility at 2 h in data set [1] (setting [2]) and in data set [1] (setting [3]) was at least 1 µM each time.
As to `O=c1c2cc(-c3ccc(C(F)(F)F)cn3)nc(-c3cccnc3)c2ncn1[C@@H]1COC[C@H]1O` [Compound 140, 3-((3R,4S)-4-hydroxytetrahydrofuran-3-yl)-8-(pyridin-3-yl)-6-(5-(trifluoromethyl)pyridin-2-yl)pyrido[3,4-d]pyrimidin-4(3H)-one], the pIC50 at AHR is over 7.00. Moreover, the solubility at 2 h in data set [1] (setting [2]) and in data set [1] (setting [3]) was at least 1 µM in each case.
For the compound `C[C@H](O)Cn1cnc2c(-c3cnn(C)c3)nc(-c3ccc(C(F)(F)F)cn3)cc2c1=O` [Compound 142, (S)-3-(2-hydroxypropyl)-8-(1-methyl-1H-pyrazol-4-yl)-6-(5-(trifluoromethyl)pyridin-2-yl)pyrido[3,4-d]pyrimidin-4(3H)-one], the pIC50 at AHR is over 7.00. Besides, the solubility at 2 h in data set [1] (setting [2]) and in data set [1] (setting [3]) was 0.1 to 1 µM (≈ 0.043 to 0.43 µg/mL) each time.
Turning to `C[C@H](O)Cn1cnc2c(-c3cccnc3)nc(-c3ccc(C(F)(F)F)cn3)cc2c1=O` [Compound 143, (S)-3-(2-hydroxypropyl)-8-(pyridin-3-yl)-6-(5-(trifluoromethyl)pyridin-2-yl)pyrido[3,4-d]pyrimidin-4(3H)-one], the pIC50 on AHR was over 7.00. The solubility at 2 h in data set [1] (setting [2]) and in data set [1] (setting [3]) was at least 1 µM in each case.
For the compound `C[C@@H](O)Cn1cnc2c(-c3cccnc3)nc(-c3ccc(C(F)(F)F)cn3)cc2c1=O` [Compound 144, (R)-3-(2-hydroxypropyl)-8-(pyridin-3-yl)-6-(5-(trifluoromethyl)pyridin-2-yl)pyrido[3,4-d]pyrimidin-4(3H)-one], on AHR, the pIC50 is over 7.00. The solubility at 2 h in data set [1] (setting [2]) and in data set [1] (setting [3]) was at least 1 µM in each case.
For `O=c1c2cc(-c3ccc(C(F)(F)F)cn3)nc(-c3cccnc3)c2ncn1[C@H]1COC[C@H]1O` [Compound 145, 3-((3S,4S)-4-hydroxytetrahydrofuran-3-yl)-8-(pyridin-3-yl)-6-(5-(trifluoromethyl)pyridin-2-yl)pyrido[3,4-d]pyrimidin-4(3H)-one], the pIC50 at AHR was over 7.00. In addition, the solubility at 2 h was at least 1 µM in data set [1] (setting [2]) and 0.1 to 1 µM (≈ 0.0455 to 0.455 µg/mL) in data set [1] (setting [3]).
For `Cn1cc(-c2nc(-c3ccc(C(F)(F)F)cn3)cc3c(=O)n([C@H]4COC[C@H]4O)cnc23)cn1` [Compound 151, 3-((3S,4S)-4-hydroxytetrahydrofuran-3-yl)-8-(1-methyl-1H-pyrazol-4-yl)-6-(5-(trifluoromethyl)pyridin-2-yl)pyrido[3,4-d]pyrimidin-4(3H)-one], the pIC50 on AHR was over 7.00. In addition, the solubility at 2 h in data set [1] (setting [2]) and in data set [1] (setting [3]) was 0.1 to 1 µM (≈ 0.0458 to 0.458 µg/mL) throughout.
Regarding `O=c1c2cc(-c3ccc(Cl)cc3)nc(-c3cccnc3)c2ncn1[C@@H]1COC[C@H]1O` [Compound 152, 6-(4-chlorophenyl)-3-((3R,4S)-4-hydroxytetrahydrofuran-3-yl)-8-(pyridin-3-yl)pyrido[3,4-d]pyrimidin-4(3H)-one], the pIC50 on AHR was over 7.00. Also, the solubility at 2 h in data set [1] (setting [2]) and in data set [1] (setting [3]) was at least 1 µM each time.
As for `O=c1c2cc(-c3ccc(C(F)(F)F)cn3)nc(-c3cccnc3)c2ncn1C[C@@H](O)C(F)(F)F` [Compound 154, (R)-8-(pyridin-3-yl)-3-(3,3,3-trifluoro-2-hydroxypropyl)-6-(5-(trifluoromethyl)pyridin-2-yl)pyrido[3,4-d]pyrimidin-4(3H)-one], at AHR, the pIC50 is over 7.00. Further, the solubility at 2 h in data set [1] (setting [2]) and in data set [1] (setting [3]) was at least 1 µM each time.
Turning to `CNC(=O)[C@H](C)n1cnc2c(-c3cccnc3)nc(-c3ccc(C(F)(F)F)nc3)cc2c1=O` [Compound 156, (S)—N-methyl-2-(4-oxo-8-(pyridin-3-yl)-6-(6-(trifluoromethyl)pyridin-3-yl)pyrido[3,4-d]pyrimidin-3(4H)-yl)propanamide], the pIC50 on AHR was over 7.00. In addition, the solubility at 2 h in data set [1] (setting [2]) and in data set [1] (setting [3]) was at least 1 µM in each case.
Regarding `CC(C)(O)Cn1cnc2c(-n3ccnc3)nc(-c3ccc(C(F)(F)F)cn3)cc2c1=O` [Compound 160, 3-(2-hydroxy-2-methylpropyl)-8-(1H-imidazol-1-yl)-6-(5-(trifluoromethyl)pyridin-2-yl)pyrido[3,4-d]pyrimidin-4(3H)-one], the pIC50 on AHR is over 7.00. In addition, the solubility at 2 h in data set [1] (setting [2]) and in data set [1] (setting [3]) was at least 1 µM throughout.

The record behind these values is patent publication US20230295152A1 (SENDA BIOSCIENCES, INC., priority 2019, published 2023).
